The test system of one experiment is A375 cells. As to the kind of experiment: Compounds cellular killing in A375 cancer line (Cell Titer-Glo, 6 days). It is filed as cell-based, human. Particulars: Homo sapiens, A-375, 144 h, 6 days incubation, cell viability by Cell Titer-Glo. The protocol: A375 (ATCC, CRL-1619). […] The base medium for A375 is DMEM, high glucose, GlutaMAX™ Supplement (Gibco, 10566024). To make the complete growth medium, fetal bovine serum was added to the base mediumat a final concentration of 10% (Gibco, 10099-141C). The cell line was grown in a humidified 5% CO2 atmosphere at 37° C., and was regularly tested for the presence of mycoplasma with MycoAlert™ PLUS Mycoplasma Detection Kit (Lonza, LT07-710).
(§1) Payload direct killing by compounds 1-1 to 1-22 was assessed in A375 and Calu-6 cancer cell lines. Cells were seeded at 1E3/well (A375) 2E3/well (Calu-6) into 96-well plates (Greiner: 655090), 100 μL/well, and incubated at 37° C., 5% CO2, overnight. Fresh growth medium was added containing varying concentrations of compounds, 50 μL/well, and incubated at 37° C., 5% CO2, for 6 days. The cell viability detected by Cell Titer-Glo (Promega, G7573), 70 μL/well. The plates were allowed to incubate at room temperature for 10 minutes to stabilize the luminescent signal. The plates were analyzed with a microplate reader.

In another experiment the test system is Calu-6 cells. Put plainly: Compounds cellular killing in Calu-6 cancer line (Cell Titer-Glo, 6 days). The note with it: Homo sapiens, Calu-6, 144 h, 6 days incubation, cell viability by Cell Titer-Glo. The format is cell-based, human. The procedure:
Calu-6 (ATCC, HTB-56). […] The base medium for Calu-6 is Eagle's Minimum Essential Medium (ATCC, 30-2003). To make the complete growth medium, fetal bovine serum was added to the base mediumat a final concentration of 10% (Gibco, 10099-141C). The cell line was grown in a humidified 5% CO2 atmosphere at 37° C., and was regularly tested for the presence of mycoplasma with MycoAlert™ PLUS Mycoplasma Detection Kit (Lonza, LT07-710).
as §1

Molecules are shown by their SMILES.

A word on the EC50: it is the concentration that produces a half-maximal response. Lower therefore signals higher potency in that assay.

In the experiment with A375 cells, `COc1cc2c(cc1OCCCOc1cc3c(cc1OC)C(=O)N1CC4(CC4)C[C@H]1CN3)N=C[C@@H]1Cc3ccccc3CN1C2=O` [Compound 1-15, (S)-2-methoxy-3-(3-(((S)-7-methoxy-5-oxo-5,10,11,11a-tetrahydro-1H,3H-spiro[benzo[e]pyrrolo[1,2-a][1,4]diazepine-2,1′-cyclopropan]-8-yl)oxy)propoxy)-7,12-dihydrobenzo[5,6][1,4]diazepino[1,2-b]isoquinolin-14(6aH)-one] returned an EC50 of 134 pM and an Emax of 99.5%. In the experiment with Calu-6 cells, this compound had a concentration giving a half-maximal response (EC50) of 45 pM and an Emax of 99.7%.
In the case of `COc1cc2c(cc1OCc1cccc(COc3cc4c(cc3OC)C(=O)N3CC5(CC5)C[C@H]3CN4)c1)N=C[C@@H]1CC3(CC3)CN1C2=O` [Compound 1-9, (S)-7-methoxy-8-((3-((((S)-7-methoxy-5-oxo-5,11a-dihydro-1H,3H-spiro[benzo[e]pyrrolo[1,2-a][1,4]diazepine-2,1′-cyclopropan]-8-yl)oxy)methyl)benzyl)oxy)-1,10,11,11a-tetrahydro-3H,5H-spiro[benzo[e]pyrrolo[1,2-a][1,4]diazepine-2,1′-cyclopropan]-5-one], the values for the EC50 in the experiment with A375 cells and with Calu-6 cells were 10 pM and 2 pM, respectively. In addition, the Emax in the experiment on A375 cells was 99.9%; in the experiment on Calu-6 cells it was 99.7%.

For the origin of these results see patent US20260027221A1, “Targeted Pyrrolobenzodiazapine Conjugates” (BeOne Medicines I GmbH, priority 2023, published 2026).
